Key:
[1] = Piglet performance with lactose and SWE, Example 3; type: in vivo, pig
[2] = Coefficient of total tract apparent digestibility, Example 3; type: in vivo, pig; settings: SWE − or +
Escherichia coli = experiment: Faecal microbiology, Example 3; type: in vivo, pig; settings: SWE − or +
Experimental: (§1) This experiment was carried out over two consecutive periods of 25 days. 240 piglets were selected after weaning at 24 days and assigned to one of four dietary treatments. Pigs in period 1 and 2 had initial live weights of 7.2 Kg and 7.8 Kg (±0.9 Kg), respectively. This experiment was designed as a 2×2 factorial. During the experiment (days 0-25) piglets were offered the following diets: (T1) 150 g/Kg lactose; (T2) 150 g/Kg lactose+SWE; (T3) 250 g/Kg lactose (T4) 250 g/Kg lactose+SWE. SWE was included at 2.8 g/Kg and derived from Laminaria digitata. It contained laminarin (112 g/Kg), fucoidan (89 g/Kg) and ash (799 g/Kg).
(§2) Pigs were housed in groups of 4 (n=15/treatment) and weighed at weaning (day 0), day 7, 14 and 25. Pigs were fed ad libitum. Fresh faecal samples were collected on days 10 to 15 for determination of nutrient digestibility and VFA analysis. Fresh faecal samples were collected on day 10 for enumeration of E. coli and Lactobacilli (O'Connell et al., 2005).
(§3) 1 g of faecal sample was serially diluted in maximum recovery diluent (MRD; Oxoid, Basingstoke, UK) and plated on selective agars. Lactobacillus spp. were isolated on de Man Rogosa Sharp agar (MRS, Oxoid). The API 50 CHL (BioMerieux, France) kit was used to confirm suspect Lactobacilli spp. E. coli species were isolated on MacConkey agar (Oxoid). Suspect colonies were confirmed with API 20E (BioMerieux, France).

Lactobacilli [3] = experiment: Faecal microbiology, Example 3; type: in vivo, pig; settings: SWE − or +
Experimental: as §1, §2, §3

[4] = Pig performance post weaning with LAM and FUC, Example 4; type: in vivo; settings: for ADG: days 14-21
From the text: (§4) One hundred and ninety two piglets were weaned at twenty four days of age, with an initial live weight of 6.4±0.785 Kg and assigned to one of four dietary treatments or 21 days post weaning. The dietary treatments consisted of (T1) basal diet, (T2) basal diet with 300 ppm LAM, (T3) basal diet with 236 ppm FUC, (T4) Basal diet with 300 ppm LAM and 236 ppm FUC. Diets were formulated to have identical concentrations of digestible energy (DE) (16 MJ/Kg) and ileal digestible lysine (14 g/Kg). All amino acid requirements were met relative to lysine (Close, 1994). Chromium III oxide was added to the diets for determination of nutrient digestibility. The LAM and FUC were derived from Laminaria hyperborea.
(§5) Piglets were housed in groups of 4 and offered feed twice daily. Water was supplied ad-libitum. Any pig displaying symptoms of illness was treated appropriately and recorded. Pigs were weighed on day 0 (day of weaning), 7, 14 and 21. Feed intake was monitored weekly. Fresh faecal samples were taken on day 10 and were analysed for E. coli and Lactobacilli concentrations. Faeces samples were collected from each pen on day 12-17 and were retained for chemical analysis. Fresh faecal samples were removed on day 14 and were frozen and retained for volatile fatty acid analysis. Fresh faecal samples were taken on day 17 for pH determination.

Lactobacilli [5] = experiment: Faecal microbiology, Example 4; type: in vivo, pig
From the text: as §4, §5
A sample was serially diluted (1:10) in 9.0 ml aliquots of maximum recovery diluent (MRD, Oxoid, Basingstoke, UK), and spread plated (0.1 ml aliquots) onto selective agars. Lactobacillus spp. were isolated on de Man, Rogosa, Sharp agar (MRS, Oxoid) with overnight incubation at 37° C. in 5% CO2. The API 50 CHL (BioMerieux, France) kit was used to confirm suspect Lactobacilli spp. E. coli species were isolated on MacConkey agar (Oxoid), following aerobic incubation at 37° C. for 18-24 hours. Suspect colonies were confirmed with API 20E (BioMerieux, France).

[6] = Day 0-7, diet with 150 g/Kg lactose, SWE 2.8 g/Kg where included
[7] = Day 0-7, diet with 250 g/Kg lactose, SWE 2.8 g/Kg where included
[8] = Day 0-25, diet with 150 g/Kg lactose, SWE 2.8 g/Kg where included
[9] = Day 0-25, diet with 250 g/Kg lactose, SWE 2.8 g/Kg where included
[10] = Day 7-14, diet with 150 g/Kg lactose, SWE 2.8 g/Kg where included
[11] = Day 7-14, diet with 250 g/Kg lactose, SWE 2.8 g/Kg where included
[12] = Day 14-25, diet with 150 g/Kg lactose, SWE 2.8 g/Kg where included
[13] = Day 14-25, diet with 250 g/Kg lactose, SWE 2.8 g/Kg where included

OC[C@H]1O[C@@H](O[C@H]2[C@H](O)[C@@H](O)C(O)O[C@@H]2CO)[C@H](O)[C@@H](O)[C@H]1O (stereo partly drawn) [Lactose, lactose]
Average Daily Gain (ADG) ([1]; Day 0-7, diet with 150 g/Kg lactose, SWE 2.8 g/Kg (L. digitata) where included): 0.100 kg/day
Average Daily Feed Intake (ADFI) [1, 6]: 0.242 kg/day
Gain: Feed ratio [1, 6]: 0.413 Kg/Kg
Average Daily Gain (ADG) ([1]; Day 0-7, diet with 250 g/Kg lactose, SWE 2.8 g/Kg (L. digitata) where included): 0.146 kg/day
Average Daily Feed Intake (ADFI) [1, 7]: 0.239 kg/day
Gain: Feed ratio [1, 7]: 0.589 Kg/Kg
Average Daily Feed Intake (ADFI) [1, 8]: 0.446 kg/day
Average Daily Gain (ADG) [1, 8]: 0.275 kg/day
Gain: Feed ratio [1, 8]: 0.603 Kg/Kg
Average Daily Feed Intake (ADFI) [1, 9]: 0.458 kg/day
Average Daily Gain (ADG) [1, 9]: 0.287 kg/day
Gain: Feed ratio [1, 9]: 0.619 Kg/Kg
Average Daily Feed Intake (ADFI) [1, 10]: 0.415 kg/day
Average Daily Gain (ADG) [1, 10]: 0.302 kg/day
Gain: Feed ratio [1, 10]: 0.747 Kg/Kg
Average Daily Feed Intake (ADFI) [1, 11]: 0.450 kg/day
Average Daily Gain (ADG) [1, 11]: 0.325 kg/day
Gain: Feed ratio [1, 11]: 0.729 Kg/Kg
Average Daily Feed Intake (ADFI) [1, 12]: 0.682 kg/day
Average Daily Gain (ADG) [1, 12]: 0.438 kg/day
Gain: Feed ratio [1, 12]: 0.633 Kg/Kg
Average Daily Feed Intake (ADFI) [1, 13]: 0.683 kg/day
Average Daily Gain (ADG) [1, 13]: 0.388 kg/day
Gain: Feed ratio [1, 13]: 0.569 Kg/Kg
Digestibility Ash ([2]; diet Lactose 150 g/Kg): 53.30%
Digestibility DM ([2]; diet Lactose 150 g/Kg): 87.75%
Digestibility GE ([2]; diet Lactose 150 g/Kg): 85.93%
Digestibility N ([2]; diet Lactose 150 g/Kg): 83.69%
Digestibility NDF ([2]; diet Lactose 150 g/Kg): 37.55%
Digestibility OM ([2]; diet Lactose 150 g/Kg): 89.16%
Digestibility Ash ([2]; diet Lactose 250 g/Kg): 72.80%
Digestibility DM ([2]; diet Lactose 250 g/Kg): 91.34%
Digestibility GE ([2]; diet Lactose 250 g/Kg): 90.22%
Digestibility N ([2]; diet Lactose 250 g/Kg): 86.86%
Digestibility NDF ([2]; diet Lactose 250 g/Kg): 61.91%
Digestibility OM ([2]; diet Lactose 250 g/Kg): 92.24%
Bacterial populations Escherichia coli (Escherichia coli; diet Lactose 150 g/Kg): 6.30 Log10 CFU/g faeces
Bacterial populations Escherichia coli (Escherichia coli; diet Lactose 250 g/Kg): 5.70 Log10 CFU/g faeces
Bacterial populations Lactobacilli (Lactobacilli [3]; diet Lactose 150 g/Kg): 8.46 Log10 CFU/g faeces
Bacterial populations Lactobacilli (Lactobacilli [3]; diet Lactose 250 g/Kg): 8.19 Log10 CFU/g faeces

fucoidan
ADG ([4]; FUC added to a LAM diet): no effect
ADG ([4]; FUC diet (236 ppm) compared to basal diet): significantly higher
average daily feed intake ([4]; weaned pigs, 21 days, LAM 300 ppm, FUC 236 ppm): no effect
faecal Lactobacilli numbers (Lactobacilli [5]; FUC diet (236 ppm) v basal diet (8.93)): 9.22
faecal lactobacilli populations (Lactobacilli [5]; FUC included with LAM): no effect
